In brackets after ≈: the same amount, converted by molar mass.
How the values were obtained:
Format in all cases: functional
[1] = test system: Staphylococcus aureus; assay: Antibacterial activity against Staphylococcus aureus ATCC 25923 after 24 hrs by serial dilution method; conditions: ATCC 25923, 24 h
[2] = test system: Bacillus subtilis; assay: Antibacterial activity against Bacillus subtilis ATCC 6633 after 24 hrs by serial dilution method; conditions: ATCC 6633, 24 h
[3] = test system: Escherichia coli; assay: Antibacterial activity against Escherichia coli ATCC 23556 after 24 hrs by serial dilution method; conditions: ATCC 23556, 24 h
[4] = test system: Pseudomonas aeruginosa; assay: Antibacterial activity against Pseudomonas aeruginosa ATCC 10145 after 24 hrs by serial dilution method; conditions: ATCC 10145, 24 h
[5] = test system: Candida albicans; assay: Antifungal activity against Candida albicans after 48 hrs by serial dilution method
[6] = test system: Pichia kudriavzevii; assay: Antifungal activity against Candida krusei ATCC 6258 after 48 hrs by serial dilution method; conditions: ATCC 6258, 48 h
[7] = test system: Nakaseomyces glabratus; assay: Antifungal activity against Candida glabrata after 48 hrs by serial dilution method

Row | Compound | MIC [1] [µg/mL] | MIC [2] [µg/mL] | MIC [3] [µg/mL] | MIC [4] [µg/mL] | MIC [5] [µg/mL] | MIC [6] [µg/mL] | MIC [7] [µg/mL]
1 | O=C(Nc1ccc2oc(Cc3ccccc3)nc2c1)c1ccccc1 | 200 (≈ 609 µM) | 50 (≈ 152 µM) | 100 (≈ 305 µM) | 100 (≈ 305 µM) | 50 (≈ 152 µM) | 12.5 (≈ 38.1 µM) | 25 (≈ 76.1 µM)
2 | O=C(Nc1ccc2oc(Cc3ccc(Cl)cc3)nc2c1)c1ccccc1 | 200 (≈ 551 µM) | 50 (≈ 138 µM) | 100 (≈ 276 µM) | 100 (≈ 276 µM) | 50 (≈ 138 µM) | 25 (≈ 68.9 µM) | 25 (≈ 68.9 µM)
3 | Cc1ccc(CC(=O)Nc2ccc3oc(Cc4ccccc4)nc3c2)cc1 | 25 (≈ 70.1 µM) | 25 (≈ 70.1 µM) | 25 (≈ 70.1 µM) | 25 (≈ 70.1 µM) | 25 (≈ 70.1 µM) | 6.25 (≈ 17.5 µM) | 12.5 (≈ 35.1 µM)
4 | O=C(Nc1ccc2oc(Cc3ccc(Cl)cc3)nc2c1)c1ccc(Cl)c([N+](=O)[O-])c1 | 50 (≈ 113 µM) | 50 (≈ 113 µM) | 50 (≈ 113 µM) | 50 (≈ 113 µM) | 25 (≈ 56.5 µM) | 25 (≈ 56.5 µM) | 25 (≈ 56.5 µM)
5 | CC1(C)S[C@@H]2[C@H](NC(=O)[C@H](N)c3ccccc3)C(=O)N2[C@H]1C(=O)O [AMPICILLIN] | 1.56 (≈ 4.46 µM) | 1.56 (≈ 4.46 µM) | 12.5 (≈ 35.8 µM) | > 200 | – | – | –
6 | Cc1ccc(C(=O)Nc2ccc3oc(Cc4ccccc4)nc3c2)s1 | 25 (≈ 71.8 µM) | 25 (≈ 71.8 µM) | 25 (≈ 71.8 µM) | 25 (≈ 71.8 µM) | 12.5 (≈ 35.9 µM) | 6.25 (≈ 17.9 µM) | 6.25 (≈ 17.9 µM)
7 | CCc1ccc(C(=O)Nc2ccc3oc(Cc4ccc(Cl)cc4)nc3c2)cc1 | 50 (≈ 128 µM) | 50 (≈ 128 µM) | 50 (≈ 128 µM) | 50 (≈ 128 µM) | 25 (≈ 64 µM) | 25 (≈ 64 µM) | 25 (≈ 64 µM)
8 | O=C(O)c1cn(C2CC2)c2cc(N3CCNCC3)c(F)cc2c1=O [CIPROFLOXACIN] | 3.12 (≈ 9.42 µM) | 1.56 (≈ 4.71 µM) | – | 0.78 (≈ 2.35 µM) | – | – | –
9 | O=C(CSc1ccccc1)Nc1ccc2oc(Cc3ccc(Cl)cc3)nc2c1 | 100 (≈ 245 µM) | 100 (≈ 245 µM) | 100 (≈ 245 µM) | 100 (≈ 245 µM) | 50 (≈ 122 µM) | 25 (≈ 61.1 µM) | 50 (≈ 122 µM)
10 | O=C(Cc1ccc([N+](=O)[O-])cc1)Nc1ccc2oc(Cc3ccccc3)nc2c1 | 50 (≈ 129 µM) | 50 (≈ 129 µM) | 50 (≈ 129 µM) | 25 (≈ 64.5 µM) | 25 (≈ 64.5 µM) | 25 (≈ 64.5 µM) | 25 (≈ 64.5 µM)
11 | O=C(Cc1ccccc1)Nc1ccc2oc(Cc3ccccc3)nc2c1 | 25 (≈ 73 µM) | 25 (≈ 73 µM) | 25 (≈ 73 µM) | 50 (≈ 146 µM) | 12.5 (≈ 36.5 µM) | 12.5 (≈ 36.5 µM) | 25 (≈ 73 µM)
12 | O=C(Nc1ccc2oc(Cc3ccccc3)nc2c1)c1ccc([N+](=O)[O-])cc1 | 50 (≈ 134 µM) | 25 (≈ 67 µM) | 100 (≈ 268 µM) | 25 (≈ 67 µM) | 12.5 (≈ 33.5 µM) | 12.5 (≈ 33.5 µM) | 12.5 (≈ 33.5 µM)
13 | O=C(Nc1ccc2oc(Cc3ccc(Cl)cc3)nc2c1)c1ccc(Br)cc1 | 50 (≈ 113 µM) | 50 (≈ 113 µM) | 50 (≈ 113 µM) | 50 (≈ 113 µM) | 50 (≈ 113 µM) | 100 (≈ 226 µM) | 100 (≈ 226 µM)
14 | Cc1ccc(C)c(C(=O)Nc2ccc3oc(Cc4ccccc4)nc3c2)c1 | 50 (≈ 140 µM) | 25 (≈ 70.1 µM) | 50 (≈ 140 µM) | 50 (≈ 140 µM) | 25 (≈ 70.1 µM) | 25 (≈ 70.1 µM) | 25 (≈ 70.1 µM)
15 | O=C(Cc1ccc(F)cc1)Nc1ccc2oc(Cc3ccc(Cl)cc3)nc2c1 | 12.5 (≈ 31.7 µM) | 100 (≈ 253 µM) | 50 (≈ 127 µM) | 25 (≈ 63.3 µM) | 50 (≈ 127 µM) | 25 (≈ 63.3 µM) | 50 (≈ 127 µM)
16 | CCc1ccc(C(=O)Nc2ccc3oc(Cc4ccccc4)nc3c2)cc1 | 50 (≈ 140 µM) | 50 (≈ 140 µM) | 50 (≈ 140 µM) | 50 (≈ 140 µM) | 25 (≈ 70.1 µM) | 25 (≈ 70.1 µM) | 12.5 (≈ 35.1 µM)
17 | O=C(Nc1ccc2oc(Cc3ccc(Cl)cc3)nc2c1)c1ccc(F)cc1 | 50 (≈ 131 µM) | 25 (≈ 65.7 µM) | 25 (≈ 65.7 µM) | 50 (≈ 131 µM) | 12.5 (≈ 32.8 µM) | 12.5 (≈ 32.8 µM) | 12.5 (≈ 32.8 µM)
18 | CN(C)[C@@H]1C(O)=C(C(N)=O)C(=O)[C@@]2(O)C(O)=C3C(=O)c4c(O)cccc4[C@@](C)(O)[C@H]3C[C@@H]12 [TETRACYCLINE] | 1.56 (≈ 3.51 µM) | 1.56 (≈ 3.51 µM) | 3.12 (≈ 7.02 µM) | 50 (≈ 113 µM) | – | – | –
19 | Clc1ccccc1C(c1ccccc1)(c1ccccc1)n1ccnc1 [CLOTRIMAZOLE] | – | – | – | – | 6.25 (≈ 18.1 µM) | – | –
20 | O=C(Cc1ccc(Cl)cc1)Nc1ccc2oc(Cc3ccccc3)nc2c1 | 100 (≈ 265 µM) | 100 (≈ 265 µM) | 50 (≈ 133 µM) | 50 (≈ 133 µM) | 25 (≈ 66.3 µM) | 25 (≈ 66.3 µM) | 25 (≈ 66.3 µM)
21 | O=C(Cc1ccc(Br)cc1)Nc1ccc2oc(Cc3ccc(Cl)cc3)nc2c1 | 50 (≈ 110 µM) | 25 (≈ 54.9 µM) | 50 (≈ 110 µM) | 50 (≈ 110 µM) | 12.5 (≈ 27.4 µM) | 25 (≈ 54.9 µM) | 50 (≈ 110 µM)

Reference: ChEMBL document CHEMBL1147878, “Synthesis and in vitro antimicrobial activity of new 2-[p-substituted-benzyl]-5-[substituted-carbonylamino]benzoxazoles” (2007)
